The source of these data is paper PMC10740432, “The GDP-Mannose Dehydrogenase of Pseudomonas aeruginosa: An Old and New Target to Fight against Antibiotics Resistance of Mucoid Strains” (Antibiotics, 2023).

The target in data set [1] is T1, GDP-mannose dehydrogenase (GMD) (Pseudomonas aeruginosa, UniProt P11759).
T1 construct: gene algD; native full-length protein purified from mucoid P. aeruginosa; 48 kDa polypeptide; 59 kDa apparent on gel filtration, monomer/active dimer; no tag
The experiment in a line: NADH formation at […] nm, Dixon plot. The data set is classed as biochemical.

The target of data set [2] is T1, GDP-mannose dehydrogenase (GMD). The experiment in a line: inhibition of NADH formation at […] nm. As to conditions: read-out: Percentage of GMD Inhibition at the Final Concentration of. In kind it is biochemical.
The test system of data set [3] is NC(=O)c1ccc[n+]([C@@H]2O[C@H](COP(=O)(O)OP(=O)(O)OC[C@H]3O[C@@H](n4cnc5c(N)ncnc54)[C@H](O)[C@@H]3O)[C@@H](O)[C@H]2O)c1. Nature of the data set: purified protein. To be noted: co-substrate GDP-mannose, 10 mM MgSO4, 0.2 M glycyl-glycine pH 8.5, 37 °C, strain not stated, varied: cofactor.
Data set [4] concerns Nc1nc2c(ncn2[C@@H]2O[C@H](COP(=O)(O)OP(=O)(O)O[C@H]3O[C@H](CO)[C@@H](O)[C@H](O)[C@@H]3O)[C@@H](O)[C@H]2O)c(=O)[nH]1. The experiment in a line: purified protein. To be noted: strong-affinity site of two (negative cooperativity), strains NK 125502 and A22 alg^+, 1 mM NAD+, 10 mM MgSO4, 0.2 M glycyl-glycine pH 8.5, 37 °C.

T1 sequence (P11759 whole entry): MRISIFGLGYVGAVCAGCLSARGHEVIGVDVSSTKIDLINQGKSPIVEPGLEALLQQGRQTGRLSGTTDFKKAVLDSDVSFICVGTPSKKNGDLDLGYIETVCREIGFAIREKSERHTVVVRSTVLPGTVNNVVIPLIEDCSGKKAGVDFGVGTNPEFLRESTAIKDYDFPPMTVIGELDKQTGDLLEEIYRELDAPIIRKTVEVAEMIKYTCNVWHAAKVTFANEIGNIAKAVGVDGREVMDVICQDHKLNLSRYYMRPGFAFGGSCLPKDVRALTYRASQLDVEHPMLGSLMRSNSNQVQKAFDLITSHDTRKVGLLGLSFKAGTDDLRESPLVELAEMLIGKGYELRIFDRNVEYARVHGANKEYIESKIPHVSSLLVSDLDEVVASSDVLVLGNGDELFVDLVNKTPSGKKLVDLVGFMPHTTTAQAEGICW

For orientation: Ki means a dissociation constant, usually derived from enzyme kinetics or from competition with a known ligand. Lower therefore signals higher affinity. In the case of `Nc1nc2c(ncn2[C@@H]2O[C@H](CO)[C@@H](O)[C@H]2O)c(=O)[nH]1` [guanosine], in data set [1], the Ki was approximately 40 µM. `Nc1nc2c(ncn2[C@@H]2O[C@H](CNCCCO)[C@@H](O)[C@H]2O)c(=O)[nH]1` [5′APG, 5′-(3-hydroxypropyl)-amino-5′-guanosine]: the inhibition at 500 µM in data set [2] was found to be 72 ± 2%. The Km is the substrate concentration at which the rate is half of its maximum. On to “GDP-mannose dehydrogenase (GMD) (Pseudomonas aeruginosa PAO1)”, for which the Km turned out to be 360 µM in data set [3] and 13 µM in data set [4]. Turning to `C#CC(OC(C)=O)[C@H]1O[C@H](OC(=O)NS(=O)(=O)OC[C@H]2O[C@@H](n3cnc4c(=O)[nH]c(NC(C)=O)nc43)[C@@H]3OC(C)(C)O[C@@H]32)[C@@H](OC(C)=O)[C@@H](OC(C)=O)[C@@H]1OC(C)=O` (stereo partly drawn) [AM5′ASG, alcynyl-6-tetra-O-acetyl-mannose-carbonyl-amino-sulfonyl-guanosine], the inhibition at 500 µM in data set [2] worked out at 90 ± 3%.

Turning to `NC[C@H]1O[C@@H](n2cnc3c(=O)[nH]c(N)nc32)[C@H](O)[C@@H]1O` [5′AG, 5′-amino-5′-deoxy-guanosine], in data set [2], the inhibition at 500 µM was found to be 64 ± 3%.
